According to publication PMC9217908, “Screening of commonly prescribed drugs for effects on the CAT1-mediated transport of L-arginine and arginine derivatives” (Amino Acids, 2022):
Where two headings read alike, the source gives them in different places.

Legend:
Assay in all cases: cell-based
[1] = molecular target: T1, CAT1 (cationic amino acid transporter 1, CAT1/SLC7A1) (Homo sapiens, UniProt P30825); design: species or system HEK-CAT1 (HEK293 stably transfected); Inhibition of net CAT1-mediated [3H]-ADMA (1 uM) uptake, 2.5 min, scintillation counting, vector control subtracted; settings: HEK293, ADMA 1 uM as substrate; for inhibition at 20 µM: read-out: % Inhibition of ADMA uptake at 20 µM; for inhibition at 200 µM: read-out: % Inhibition of ADMA uptake at 200 µM
T1 construct: full-length human transporter stably transfected in HEK cells (HEK-CAT1); net uptake against HEK-VC vector control cells
T1 sequence (P30825 whole entry): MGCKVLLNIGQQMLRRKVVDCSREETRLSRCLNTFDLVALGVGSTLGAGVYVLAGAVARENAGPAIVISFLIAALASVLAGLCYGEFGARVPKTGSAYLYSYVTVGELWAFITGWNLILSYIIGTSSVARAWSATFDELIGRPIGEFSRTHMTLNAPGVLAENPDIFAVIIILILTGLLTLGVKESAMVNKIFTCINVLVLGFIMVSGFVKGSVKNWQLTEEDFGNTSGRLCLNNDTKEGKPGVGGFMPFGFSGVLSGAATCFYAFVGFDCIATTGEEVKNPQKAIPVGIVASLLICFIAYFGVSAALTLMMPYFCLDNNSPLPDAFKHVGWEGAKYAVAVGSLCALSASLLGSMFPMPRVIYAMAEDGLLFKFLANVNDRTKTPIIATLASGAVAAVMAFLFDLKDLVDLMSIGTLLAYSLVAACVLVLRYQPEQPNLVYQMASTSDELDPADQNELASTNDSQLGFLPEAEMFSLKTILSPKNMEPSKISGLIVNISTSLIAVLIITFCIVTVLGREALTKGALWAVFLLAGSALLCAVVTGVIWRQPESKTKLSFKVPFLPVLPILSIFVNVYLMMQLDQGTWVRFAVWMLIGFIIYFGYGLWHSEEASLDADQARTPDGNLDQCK
Experimental: (§1) Uptake and inhibition assays using HEK-CAT1 and HEK-VC cells and L-arginine, L-homoarginine, and ADMA as substrates were performed using the protocol described (Strobel et al. [2012]; Chafai et al. [2017]). Briefly, after incubation, the supernatant was replaced with transport buffer containing [^3H]- L-arginine for 5 min and 2.5 min for medium containing [^3H]-L-homoarginine or [^3H]-ADMA with or without the test compound. The reference drugs were screened at concentrations of 20 µM (Figs. 1A, 2A, and 3A) and 200 µM (Figs. 1B, 2B, and 3B). […] The net uptake was determined by subtracting the total amount taken up by control cells from the amount taken up by CAT1-expressing cells, which was expressed as a percentage of the amount taken up by the control. To determine the inhibitory effects of the drugs on CAT1-mediated transport of L-arginine, L-homoarginine, or ADMA, the control was measured in the absence of the potential inhibitor. The value for the percent inhibition was calculated as: Inhibition (%) = 100 – (V/V0 ^* 100), where V and V0 are the net uptake rates (uptake into HEK-CAT1 cells—uptake into HEK-VC cells) with and without test drugs, respectively. […] Each bar represents the effect of one compound on CAT1-mediated ADMA (1 μM) uptake as percent inhibition. Data were obtained from at least two independent experiments performed in triplicate (n = 6–9) and each test data from the independent experiment were normalized to the respective control data to get the value of percent inhibition. Negative inhibition values indicate stimulated CAT1-mediated uptake. Data were analyzed using one-way ANOVA and Dunnett’s multiple comparison test with p < 0.05. Bars showing a statistically significant inhibition or transport stimulation are shaded in black

[2] = molecular target: T1, CAT1 (cationic amino acid transporter 1, CAT1/SLC7A1); design: species or system HEK-CAT1 (HEK293 stably transfected); Inhibition of net CAT1-mediated [3H]-L-homoarginine (1 uM) uptake, 2.5 min, scintillation counting, vector control subtracted; settings: HEK293, L-homoarginine 1 uM as substrate; for inhibition at 20 µM: read-out: % Inhibition of L-homoarginine uptake at 20 µM; for inhibition at 200 µM: read-out: % Inhibition of L-homoarginine uptake at 200 µM
Experimental: as §1, with “CAT1-mediated L-homoarginine” for “CAT1-mediated ADMA”

[3] = molecular target: T1, CAT1 (cationic amino acid transporter 1, CAT1/SLC7A1); design: species or system HEK-CAT1 (HEK293 stably transfected); Inhibition of net CAT1-mediated [3H]-L-arginine (100 uM) uptake, 5 min, scintillation counting, vector control subtracted; settings: HEK293, L-arginine 100 uM as substrate; for inhibition at 20 µM: read-out: % Inhibition of L-arginine uptake at 20 µM; for inhibition at 200 µM: read-out: % Inhibition of L-arginine uptake at 200 µM
Experimental: as §1, with “L-arginine (100” for “ADMA (1”

`COC(=O)[C@H](c1ccccc1Cl)N1CCc2sccc2C1` [Clopidogrel] was tested, and the inhibition at 20 µM [1] was -11 ± 8.1%, the inhibition at 200 µM [1] was -8.9 ± 14.9% and the inhibition at 20 µM [2] was 1.9 ± 5.4%. It also gave an inhibition at 200 µM [2] of 0.8 ± 3.1%, an inhibition at 20 µM [3] of 6.4 ± 4.4% and an inhibition at 200 µM [3] of 1.5 ± 4.1%.

Work on `Nc1ccc(S(=O)(=O)c2ccc(N)cc2)cc1` [Dapsone] yielded an inhibition at 20 µM [1] of 13.4 ± 4.4%, an inhibition at 200 µM [1] of -11.8 ± 3.7% and an inhibition at 20 µM [2] of -9.8 ± 4.4%. The inhibition at 200 µM [2] was -24.7 ± 3.1%, the inhibition at 20 µM [3] was -8.6 ± 4.3% and the inhibition at 200 µM [3] was -27.2 ± 4.2%.

`CNCCCN1c2ccccc2CCc2ccccc21` [Desipramine] showed an inhibition at 20 µM [1] of -0.7 ± 3.1%, an inhibition at 200 µM [1] of -37.6 ± 11.8% and an inhibition at 20 µM [2] of -10.3 ± 2.1%. For the same molecule, the inhibition at 200 µM [2] was 11.6 ± 7.2%, the inhibition at 20 µM [3] was -10.8 ± 2.3% and the inhibition at 200 µM [3] was 8.3 ± 6.7%.

Molecule `COc1ccc2c(c1)[C@]13CCCC[C@@H]1[C@H](C2)N(C)CC3` [Dextromethorphan] has an inhibition at 20 µM [1] of -3.3 ± 0.3%, an inhibition at 200 µM [1] of 6.2 ± 3.4% and an inhibition at 20 µM [2] of -0.5 ± 5.8%. It also gave an inhibition at 200 µM [2] of 3.1 ± 0.7%, an inhibition at 20 µM [3] of 7.3 ± 1.9% and an inhibition at 200 µM [3] of 2.9 ± 3.4%.

In the case of `O=C(O)Cc1ccccc1Nc1c(Cl)cccc1Cl` [Diclofenac], the inhibition at 20 µM [1] is reported as 26.1 ± 5.3%, the inhibition at 200 µM [1] is reported as -21.2 ± 2.8% and the inhibition at 20 µM [2] is reported as -15.1 ± 2.1%. For the same molecule, the inhibition at 200 µM [2] was -23.1 ± 2.2%, the inhibition at 20 µM [3] was -15.9 ± 2.5% and the inhibition at 200 µM [3] was -91.4 ± 5%.

For `O=C(O)c1cc(-c2ccc(F)cc2F)ccc1O` [Diflunisal], the inhibition at 20 µM [1] was -42.4 ± 4.5%, the inhibition at 200 µM [1] was 10 ± 2.1% and the inhibition at 20 µM [2] was 27.9 ± 1%. The inhibition at 200 µM [2] was -20 ± 0.5%, the inhibition at 20 µM [3] was 26.6 ± 0.9% and the inhibition at 200 µM [3] was -20.5 ± 3.3%.

`C[C@H]1O[C@@H](O[C@H]2[C@@H](O)C[C@H](O[C@H]3[C@@H](O)C[C@H](O[C@H]4CC[C@@]5(C)[C@H](CC[C@@H]6[C@@H]5CC[C@]5(C)[C@@H](C7=CC(=O)OC7)CC[C@]65O)C4)O[C@@H]3C)O[C@@H]2C)C[C@H](O)[C@@H]1O` [Digitoxin] gave an inhibition at 20 µM [1] of 4.3 ± 3.3%, an inhibition at 200 µM [1] of 21.5 ± 2.5% and an inhibition at 20 µM [2] of -7.2 ± 2.7%. It also gave an inhibition at 200 µM [2] of -12.6 ± 2.5%, an inhibition at 20 µM [3] of -7.2 ± 8.2% and an inhibition at 200 µM [3] of -14.1 ± 4.2%.

`C[C@H]1O[C@@H](O[C@H]2[C@@H](O)C[C@H](O[C@H]3[C@@H](O)C[C@H](O[C@H]4CC[C@@]5(C)[C@H](CC[C@@H]6[C@@H]5C[C@@H](O)[C@]5(C)[C@@H](C7=CC(=O)OC7)CC[C@]65O)C4)O[C@@H]3C)O[C@@H]2C)C[C@H](O)[C@@H]1O` [Digoxin] was tested, and the inhibition at 20 µM [1] was -7.4 ± 5.9%, the inhibition at 200 µM [1] was 14.4 ± 4.6% and the inhibition at 20 µM [2] was -4.8 ± 6.8%. It also gave an inhibition at 200 µM [2] of -12.7 ± 0.8%, an inhibition at 20 µM [3] of -4.3 ± 7.3% and an inhibition at 200 µM [3] of -14.9 ± 17.8%.

`COc1ccc([C@@H]2Sc3ccccc3N(CCN(C)C)C(=O)[C@@H]2OC(C)=O)cc1` [Diltiazem] showed an inhibition at 20 µM [1] of 8.5 ± 4.3%, an inhibition at 200 µM [1] of 9.1 ± 7.7% and an inhibition at 20 µM [2] of 8.6 ± 4.3%. The inhibition at 200 µM [2] was 29 ± 2.6%, the inhibition at 20 µM [3] was -7.3 ± 7.7% and the inhibition at 200 µM [3] was 29.3 ± 2.5%.

For `C[C@H]1c2cccc(O)c2C(=O)C2=C(O)[C@]3(O)C(=O)C(C(N)=O)=C(O)[C@@H](N(C)C)[C@@H]3[C@@H](O)[C@@H]21` [Doxycycline], the inhibition at 20 µM [1] was 3.1 ± 6%, the inhibition at 200 µM [1] was 9.9 ± 3.1% and the inhibition at 20 µM [2] was 9.7 ± 4.1%. It also gave an inhibition at 200 µM [2] of 9.6 ± 1.4%, an inhibition at 20 µM [3] of 9.7 ± 4.1% and an inhibition at 200 µM [3] of 6.2 ± 0.6%.

For `CNCC[C@H](Oc1cccc2ccccc12)c1cccs1` [Duloxetine], the inhibition at 20 µM [1] was 1.9 ± 5.4%, the inhibition at 200 µM [1] was -14.2 ± 4.9% and the inhibition at 20 µM [2] was 7.6 ± 6.5%. For the same molecule, the inhibition at 200 µM [2] was 11.9 ± 3.1%, the inhibition at 20 µM [3] was 6.1 ± 7.4% and the inhibition at 200 µM [3] was 12.6 ± 2.6%.

With `CCOC(=O)[C@H](CCc1ccccc1)N[C@@H](C)C(=O)N1CCC[C@H]1C(=O)O` [Enalapril] the inhibition at 20 µM [1] was 27.2 ± 2.1%, the inhibition at 200 µM [1] was 5.3 ± 1.8% and the inhibition at 20 µM [2] was 12.7 ± 4.6%. The inhibition at 200 µM [2] was -9.5 ± 1.2%, the inhibition at 20 µM [3] was 9.9 ± 8.3% and the inhibition at 200 µM [3] was -1.5 ± 1.6%.

`C[C@@H](O)[C@H]1C(=O)N2C(C(=O)O)=C(S[C@@H]3CN[C@H](C(=O)Nc4cccc(C(=O)O)c4)C3)[C@H](C)[C@H]12` [Ertapenem] showed an inhibition at 20 µM [1] of -4.1 ± 6%, an inhibition at 200 µM [1] of 9.9 ± 3.1% and an inhibition at 20 µM [2] of -28.5 ± 4.8%. The inhibition at 200 µM [2] was -15.1 ± 1.6%, the inhibition at 20 µM [3] was -28.9 ± 4.8% and the inhibition at 200 µM [3] was -15.8 ± 5.9%.

`C#C[C@]1(O)CC[C@H]2[C@@H]3CCc4cc(O)ccc4[C@H]3CC[C@@]21C` [Ethinylestradiol] showed an inhibition at 20 µM [1] of -1.6 ± 3.4%, an inhibition at 200 µM [1] of -35.3 ± 0.8% and an inhibition at 20 µM [2] of 8.2 ± 5.4%. The inhibition at 200 µM [2] was -10.1 ± 0.5%, the inhibition at 20 µM [3] was 7.4 ± 5.9% and the inhibition at 200 µM [3] was -10.5 ± 3.3%.

With `Cc1ccc(-c2ncc(Cl)cc2-c2ccc(S(C)(=O)=O)cc2)cn1` [Etorixocib] the inhibition at 20 µM [1] was -17.2 ± 13.5%, the inhibition at 200 µM [1] was -22.8 ± 2.2% and the inhibition at 20 µM [2] was -5.4 ± 2.1%. The inhibition at 200 µM [2] was 31.8 ± 4.3%, the inhibition at 20 µM [3] was 0.7 ± 3.8% and the inhibition at 200 µM [3] was -20.7 ± 2.9%.

Molecule `CCOC(=O)C1=C(C)NC(C)=C(C(=O)OC)C1c1cccc(Cl)c1Cl` (stereo not drawn) [Felodipine] has an inhibition at 20 µM [1] of -7.4 ± 4.4%, an inhibition at 200 µM [1] of 3.6 ± 2.1% and an inhibition at 20 µM [2] of -9.6 ± 2.8%. The inhibition at 200 µM [2] was -18.2 ± 1%, the inhibition at 20 µM [3] was -2.2 ± 5.9% and the inhibition at 200 µM [3] was -39.2 ± 1.4%.

`CC(C)OC(=O)C(C)(C)Oc1ccc(C(=O)c2ccc(Cl)cc2)cc1` [Fenofibrate] was tested, and the inhibition at 20 µM [1] was -4.8 ± 2.1%, the inhibition at 200 µM [1] was 0.2 ± 3.2% and the inhibition at 20 µM [2] was 10.1 ± 2.9%. For the same molecule, the inhibition at 200 µM [2] was 8.9 ± 0.4%, the inhibition at 20 µM [3] was 16.3 ± 6.6% and the inhibition at 200 µM [3] was 13.1 ± 2%.

`C[C@]12CCC(=O)C=C1CC[C@H]1[C@@H]3CC[C@](O)(C(=O)CO)[C@@]3(C)C[C@H](O)[C@@]12F` [Fludrocortisone] showed an inhibition at 20 µM [1] of 0.5 ± 3.9%, an inhibition at 200 µM [1] of -43.9 ± 4.9% and an inhibition at 20 µM [2] of -27 ± 6.7%. The inhibition at 200 µM [2] was -15.1 ± 0.6%, the inhibition at 20 µM [3] was -29.4 ± 8.1% and the inhibition at 200 µM [3] was -24.6 ± 1%.
